Data as given in patent US12702149B2, “Resistant starch from natural sources and their preparation” (Arjuna Natural Private Limited, priority 2019, dated 2026).

Test system: carrageenan induced paw oedema
Assay: Anti-inflammatory study, carrageenan induced paw oedema model
Assay type: in vivo, Wistar rats
Settings: oral, fibres 50 mg/Kg, Diclofenac 10 mg/Kg
Procedure: Anti-inflammatory study of turmeric dietary fibre was conducted in Wistar rats. Rats were divided into 5 groups and orally administered with study samples. • Group 1: consisted of control animals and were fed with vehicle (1% tween 80) • Group 2: animals which were given Diclofenac standard (10 mg Diclofenac/Kg body weight) • Group 3: Animals were given turmeric dietary fibre having 80% total dietary fibre (50 mg/Kg) • Group 4: Animals were given soluble dietary fibre from Guar beans (50 mg/Kg) • Group 5: Animals were given modified starch from tapioca (50 mg/Kg) Then after 30 mins, the treated rats were challenged with carrageenan (0.1 ml, 1% carrageenan suspension in 0.9% NaCl solution) by injecting to the animals in sub plantar region of the hind paw. Carrageenan is a chemical known to induce inflammation in rats. The paw volume was determined for all the animals at different time intervals (base line, 3 hr, 6 Hr) after carrageenan injection using digital plethysmometer and the percentage inhibition of inflammation was calculated using following formula: Percentage inhibition=(1−D/C)×100 • D-Represents the difference in paw volume from baseline in test/standard group. • C-Represents the difference in paw volume from baseline in the control group. A higher value of percentage inhibition indicated less paw volume in the animals as compared to control animals and more anti-inflammatory activity.

For `O=C(O)Cc1ccccc1Nc1c(Cl)cccc1Cl` [Diclofenac], the “Average percentage inhibition of inflammation” value (average of 3 Hr and 6 Hr) was 39%, the “Percentage inhibition of inflammation 3 Hr” value (paw volume 3 hr after carrageenan) was 46% and the “Percentage inhibition of inflammation 6 Hr” value (paw volume 6 hr after carrageenan) was 32%.
